Measurements from PubChem BioAssay (NCI).
“And” between values parts separate entries of the source, which are not always exact repeats. Equal entries are not always repeated.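 Results reflect a 48-hour exposure of cells in 96-well plates to compound at five concentrations. GI50 is the concentration that inhibits growth by half. TGI: concentration producing complete growth inhibition.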

Assays:
Assay in all cases: NCI anticancer screen, dose series, 48 h
HOP-62 NSCLC = test system: HOP-62 NSCLC
HOP-92 NSCLC = test system: HOP-92 NSCLC
MALME-3M melanoma = test system: MALME-3M melanoma
COLO 205 colon = test system: COLO 205 colon
SK-OV-3 ovarian = test system: SK-OV-3 ovarian
SK-MEL-5 melanoma = test system: SK-MEL-5 melanoma
HT29 colon = test system: HT29 colon
KM12 colon = test system: KM12 colon
SR leukemia = test system: SR leukemia
UACC-257 melanoma = test system: UACC-257 melanoma
NCI-H460 lung = test system: NCI-H460 lung
DU-145 prostate = test system: DU-145 prostate
MDA-N = test system: MDA-N
HS 578T breast = test system: HS 578T breast

SMILES	TGI (HOP-62 NSCLC)	TGI (HOP-92 NSCLC)	TGI (MALME-3M melanoma)	TGI (COLO 205 colon)	TGI (SK-OV-3 ovarian)	TGI (SK-MEL-5 melanoma)	TGI (HT29 colon)	TGI (KM12 colon)	TGI (SR leukemia)	TGI (UACC-257 melanoma)	TGI (NCI-H460 lung)	TGI (DU-145 prostate)	TGI (MDA-N)	TGI (HS 578T breast)	GI50 (HOP-92 NSCLC)	GI50 (MALME-3M melanoma)	GI50 (NCI-H460 lung)
Cc1ccc2[nH]c3c(C)c4ccncc4c(C)c3c2c1	3.24 µM	3.09 µM	4.16 µM	2.23 µM	4.38 µM	2.92 µM	2.58 µM	2.12 µM	4.25 µM	2.94 µM	1.77 µM	–	–	–	–	–	–
CNC(=O)CN1CC(=O)N(C)C(=O)C1	> 100 µM	> 100 µM	> 100 µM	> 100 µM	> 100 µM	> 100 µM	–	> 100 µM	> 100 µM	–	–	–	–	–	–	–	–
c1ccc(-c2cc(-c3cc(-c4ccccc4)n(-c4ccccc4)n3)nn2-c2ccccc2)cc1	> 100 µM	–	> 100 µM	> 100 µM	> 100 µM	> 100 µM	> 100 µM	> 100 µM	–	> 100 µM	> 100 µM	> 100 µM	> 100 µM	> 100 µM	–	–	–
N#Cc1c(-c2ccc(Cl)cc2)c(C#N)c(=O)n(NS(=O)(=O)c2ccccc2)c1-c1ccccc1	> 25 µM	> 25 µM	–	> 25 µM	> 25 µM	> 25 µM	–	–	–	> 25 µM	> 25 µM	–	> 25 µM	–	–	–	–
CC1=C(C(=O)OC(C)C)C(c2ccccc2[N+](=O)[O-])C(C(=O)OC(CO[N+](=O)[O-])CO[N+](=O)[O-])=C(C)N1 (centres undefined)	11.2 µM	–	23.6 µM	38.8 µM	12.6 µM	4.78 µM	7.98 µM	22.8 µM	> 100 µM	15.7 µM	16 µM	> 100 µM	8.43 µM	25.8 µM	–	–	–
CSCCC(NC(c1ccccc1)c1ccccc1)[P+](=O)O (centres undefined)	> 100 µM	> 100 µM	> 100 µM	> 100 µM	> 100 µM	> 100 µM	> 100 µM	> 100 µM	> 100 µM	> 100 µM	> 100 µM	> 100 µM	–	> 100 µM	–	–	–
Nc1ccn(C2OC(COP(=O)(O)Oc3ccccc3)C(O)C2O)c(=O)n1 (centres undefined)	–	> 100 µM	> 100 µM	> 100 µM	> 100 µM	> 100 µM	> 100 µM	> 100 µM	–	> 100 µM	> 100 µM	–	–	–	–	–	–
Nc1ncc(Cc2nc3ccccc3s2)s1	> 100 µM	> 100 µM	> 100 µM	> 100 µM	> 100 µM	> 100 µM	> 100 µM	> 100 µM	–	> 100 µM	> 100 µM	> 100 µM	–	96.4 µM	–	–	–
CC(=O)Oc1c(OC(C)=O)c(-c2ccc(O)c(O)c2)c(O)c(O)c1-c1ccc(O)cc1	> 100 µM	> 100 µM and 96.6 µM	> 100 µM	> 100 µM	> 100 µM	> 100 µM	> 100 µM	> 100 µM	–	> 100 µM	> 100 µM	–	–	–	60.8 µM	51.3 µM	69.7 µM
COc1cc2c(cc1OC)C(Cl)C(c1cc(OC)c(OC)c(OC)c1)=C2Cl (centres undefined)	–	27.9 µM	30.6 µM	32.9 µM	56.2 µM	30.5 µM	30.3 µM	–	–	–	32.4 µM	–	–	–	–	–	–
CC(C)(C)OC(=O)N1CCC23CCCC2C(=O)CC=C13 (centres undefined)	> 100 µM	> 100 µM	> 100 µM	> 100 µM	> 100 µM	> 100 µM	> 100 µM	> 100 µM	> 100 µM	71.9 µM	> 100 µM	> 100 µM	–	> 100 µM	–	–	–
COc1cc2c(c(OC)c1OC)C(=O)CC2N (centres undefined)	–	> 100 µM	> 100 µM	> 100 µM	> 100 µM	> 100 µM	> 100 µM	> 100 µM	–	> 100 µM	> 100 µM	–	–	> 100 µM	–	–	–
NNC(=O)c1n[nH]nc1SSc1n[nH]nc1C(=O)NN	> 100 µM	> 100 µM	–	> 100 µM	> 100 µM	> 100 µM	> 100 µM	> 100 µM	–	> 100 µM	> 100 µM	> 100 µM	> 100 µM	> 100 µM	–	–	–
CN1OC(=O)N(C)C1c1ccccc1 (centres undefined)	> 100 µM	> 100 µM	> 100 µM	> 100 µM	> 100 µM	> 100 µM	> 100 µM	> 100 µM	–	> 100 µM	> 100 µM	–	–	–	–	–	–
Cc1ccc(S(=O)(=O)N/N=C2\C=C[C@]3(CC2)C(=O)N(C)c2ccccc23)cc1	> 100 µM	> 100 µM	–	> 100 µM	> 100 µM	> 100 µM	–	> 100 µM	> 100 µM	> 100 µM	> 100 µM	> 100 µM	> 100 µM	> 100 µM	–	–	–
CCN(CC)CCNc1ccc(C)c2sc3ccc(O)cc3c(=O)c12	1.66 µM	7.17 µM	2.38 µM	3.27 µM	5.59 µM	2.3 µM	3.24 µM	3.39 µM	0.981 µM	2.99 µM	1.37 µM	–	–	–	–	–	–
C[C@@H]1OC(=O)C[C@H]2CC(=O)N(CCc3cn(S(=O)(=O)C(F)(F)F)c4ccccc34)C[C@@H]21	> 100 µM	> 100 µM	> 100 µM	> 100 µM	> 100 µM	> 100 µM	> 100 µM	> 100 µM	–	> 100 µM	> 100 µM	> 100 µM	> 100 µM	> 100 µM	–	–	–
CC(C)(C)/C(O)=C\c1nc2cc(C(F)(F)F)ccc2[nH]c1=O	> 100 µM	> 100 µM	> 100 µM	> 100 µM	> 100 µM	> 100 µM	> 100 µM	> 100 µM	–	> 100 µM	–	> 100 µM	> 100 µM	> 100 µM	–	–	–
COc1cc(CC2c3cc(OC)c(OC)cc3CCN2C)c(Oc2cc3c(cc2OC)-c2c(OC)c(OC)c(OC)c4c2C(C3)N(C)CC4)cc1OC (centres undefined)	31.3 µM	20.9 µM	6.67 µM	20.9 µM	35 µM	13.4 µM	> 36.5 µM	29.3 µM	–	13.6 µM	32.7 µM	–	–	–	–	–	–
